pIC50: −log10 of the molar value. Counter-ions that a name gives are not always drawn. Like-named read-outs stand apart in the source and are kept apart here. Blank lines part the entries; values can stand above or below the compound they belong to.
What was measured:
5-HT4 receptor = target: T1, 5-HT4 receptor (Cavia porcellus, UniProt O70528); experiment: Serotonin 4 (5-HT4) receptor binding assay; set-up: species or system guinea pig
T1 construct: the mixture was suspended to give receptor membrane preparations; from tissue; host or cells: guinea pig (Slc-Hartley) brain striatum membranes
Experimental: 5-HT4 receptor binding assay and preparations of receptor membrane preparations were carried out according to a method of Grossman et al. [see British J. Pharmacol., (1993) 109, 618].
Slc-Hartley guinea pigs (body weight 300 to 400 g) were decapitated to remove brain rapidly, and striatum was isolated. To the obtained tissues were added fifteenfold of Hepes buffer (50 mM, pH7.4, 4° C.), and the mixture was homogenized by Teflon® homogenizer and centrifuged at 48,000×g (4° C.) for 15 minutes. To the resulting precipitate was added Hepes buffer (1 ml) to 30 mg by wet weight of tissues, and the mixture was suspended to give receptor membrane preparations.
0.1 nM [^3H]-GR113808 {chemical name: [1-[2-(methylsulfonylamino)ethyl]-4-piperidinyl]methyl 1-methylindole-3-carboxylate}, receptor membrane preparations, and Hepes buffer (50 mM, pH7.4, 4° C., 1 ml) containing test compounds or 30 μM serotonin were placed in an assay tube, and incubated at 37° C. for 30 minutes. On quenching the reaction, the mixture was rapidly filtered on whatman GF/B filter, which was presoaked in 0.1% polyethyleneimine for 1 hour, by using Brandel cell Harvester, and washed with ice-cooled 50 mM Tris-HCl (pH7.7, 4 ml) three times. To the filter after filtration was added ACS II scintillator, and then a radioactivity was determined by a liquid scintillation counter.
50% inhibition concentrations (IC50) were determined from inhibition rates of test compounds to specific bindings which were obtained by subtracting nonspecific bindings from total binding amounts of [^3H]-GR113808.

Male Slc-ddy mice = experiment: Mouse defecation assay; type: in vivo; set-up: key: −: No Effect; +: Moderately Improved (p<0.05); ++: Significantly Improved (p<0.01); conditions: 3 mg/kg orally; stool weight 30, 60 and 120 minutes after administration; Dunnett assay vs control
Experimental: Male Slc-ddy mice (body weight 25 to 30 g) were used and allowed to ingest food and water ad libitum until commencement of experiments.
A group of 25 mice was divided into 5 groups, which 5 mice each per group were respectively transferred to fasting cages to adjust to new environments for about 1 hour. Then, each mouse was orally administered 3 mg/kg suspension of a test compound in 0.5% tragacanth solution to measure each stool weight of each group 30, 60, and 120 minutes after oral administration.
Efficacies were evaluated by Dunnett assay between test compounds and control.

[1] = inhibition of specific binding of 0.1 nM [3H]-GR113808, guinea pig striatum membrane preparations, 37° C., 30 minutes, read-out: IC50

T1 sequence (O70528 whole entry): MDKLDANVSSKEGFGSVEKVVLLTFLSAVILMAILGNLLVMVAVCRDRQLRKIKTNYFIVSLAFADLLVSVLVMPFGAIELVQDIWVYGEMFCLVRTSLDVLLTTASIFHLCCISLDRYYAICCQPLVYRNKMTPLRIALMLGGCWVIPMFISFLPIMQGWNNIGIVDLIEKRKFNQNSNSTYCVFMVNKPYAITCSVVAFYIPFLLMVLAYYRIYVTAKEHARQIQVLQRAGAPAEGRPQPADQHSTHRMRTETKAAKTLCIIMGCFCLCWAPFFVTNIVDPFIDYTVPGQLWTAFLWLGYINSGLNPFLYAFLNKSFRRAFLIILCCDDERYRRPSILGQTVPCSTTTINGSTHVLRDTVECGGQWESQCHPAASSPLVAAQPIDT

SMILES: COc1ccccc1OC(=O)N1CCC(CN2CCO[C@@H](CNC(=O)c3cc(Cl)c(N)cc3OC)C2)CC1 [Example 107]
pIC50 (5-HT4 receptor): 8.46

SMILES: COc1cc(N)c(Cl)cc1C(=O)NC[C@H]1CN(CC2CCN(C(=O)c3ccc(-c4ccccc4)cc3)CC2)CCO1 [Example 175]
pIC50 (5-HT4 receptor; [1]): 8.21

SMILES: COc1cc(N)c(Cl)cc1C(=O)NC[C@H]1CN(CC2CCN(C(=O)Nc3cccc(C(F)(F)F)c3)CC2)CCO1 [Example 54]
pIC50 (5-HT4 receptor; [1]): 8.23
Effect (Male Slc-ddy mice): +

SMILES: COc1cc(N)c(Cl)cc1C(=O)NC[C@H]1CN(CC2CCN(C(=O)C(C)=O)CC2)CCO1 [Example 227]
pIC50 (5-HT4 receptor; [1]): 8.21
Effect (Male Slc-ddy mice): ++

SMILES: COc1cc(N)c(Cl)cc1C(=O)NC[C@H]1CN(CC2CCN(C(=O)Nc3cccc(C(C)=O)c3)CC2)CCO1 [Example 56]
pIC50 (5-HT4 receptor; [1]): 8.54

SMILES: COC(=O)N1CCC(CN2CCOC(CNC(=O)c3cc(Cl)c(N)c4c3OCC4)C2)CC1 (centres unmarked) [Example 138]
pIC50 (5-HT4 receptor; [1]): 8.55
Effect (Male Slc-ddy mice): ++

SMILES: CCOc1cc(N)c(Cl)cc1C(=O)NC[C@H]1CN(CC2CCN(C(=O)NC)CC2)CCO1 [Example 47]
pIC50 (5-HT4 receptor; [1]): 8.09

SMILES: COc1cc(N)c(Cl)cc1C(=O)NC[C@H]1CN(CC2CCN(C(=O)NCc3ccc(Cl)cc3Cl)CC2)CCO1 [Example 62]
pIC50 (5-HT4 receptor; [1]): 8.60

SMILES: CN(C)C(=O)N1CCC(CN2CCO[C@@H](CNC(=O)c3cc(Cl)c(N)c4c3OCC4)C2)CC1 [Example 136]
pIC50 (5-HT4 receptor; [1]): 8.37

SMILES: COc1cc(N)c(Cl)cc1C(=O)NC[C@H]1CN(CC2CCN(C(=O)NCc3ccccc3)CC2)CCO1 [Example 59]
pIC50 (5-HT4 receptor; [1]): 8.55

SMILES: COc1cc(N)c(Cl)cc1C(=O)NC[C@H]1CN(CC2CCN(C(=O)N(C(C)C)C(C)C)CC2)CCO1.Cl [Example 88]
Effect (Male Slc-ddy mice): ++

SMILES: COc1cc(N)c(Cl)cc1C(=O)NC[C@H]1CN(CC2CCN(C(=O)CC#N)CC2)CCO1 [Example 223]
pIC50 (5-HT4 receptor; [1]): 7.73
Effect (Male Slc-ddy mice): ++

SMILES: COc1cc(N)c(Cl)cc1C(=O)NC[C@H]1CN(CC2CCN(C(=O)c3ccc(O)cc3)CC2)CCO1 [Example 202]
pIC50 (5-HT4 receptor; [1]): 8.34

SMILES: CCOc1cc(N)c(Cl)cc1C(=O)NCC1CN(CC2CCN(C(=O)c3ccccc3)CC2)CCO1 (centres unmarked) [Example 112]
pIC50 (5-HT4 receptor; [1]): 8.52

SMILES: COc1ccc(CNC(=O)N2CCC(CN3CCO[C@@H](CNC(=O)c4cc(Cl)c(N)cc4OC)C3)CC2)cc1 [Example 61]
pIC50 (5-HT4 receptor; [1]): 8.43

SMILES: COc1cc(N)c(Cl)cc1C(=O)NC[C@H]1CN(CC2CCN(C(=O)c3ccco3)CC2)CCO1 [Example 131]
pIC50 (5-HT4 receptor; [1]): 8.16

SMILES: CCCOC(=O)N1CCC(CN2CCO[C@@H](CNC(=O)c3cc(Cl)c(N)cc3OC)C2)CC1 [Example 98]
pIC50 (5-HT4 receptor; [1]): 8.02

SMILES: C=CCCC=CC(=O)N1CCC(CN2CCOC(CNC(=O)c3cc(Cl)c(N)cc3OCC)C2)CC1 (racemic) [Example 164]
pIC50 (5-HT4 receptor; [1]): 8.12

SMILES: COc1cc(N)c(Cl)cc1C(=O)NC[C@H]1CN(CC2CCN(C(=O)NCCc3ccccc3)CC2)CCO1 [Example 63]
pIC50 (5-HT4 receptor; [1]): 8.07

SMILES: CCOc1cc(N)c(Cl)cc1C(=O)NC[C@H]1CN(CC2CCN(C(=O)n3ccnc3)CC2)CCO1 [Example 206, (S)-4-amino-5-chloro-2-ethoxy-N-[{4-[(1-imidazolecarbonyl-4-piperidinyl)-methyl]-2-morpholinyl}methyl]benzamide]
pIC50 (5-HT4 receptor; [1]): 7.97

SMILES: COc1cc(N)c(Cl)cc1C(=O)NC[C@H]1CN(CC2CCN(C(=O)c3ccccc3Oc3ccccc3)CC2)CCO1 [Example 170]
pIC50 (5-HT4 receptor; [1]): 8.25

SMILES: CCOc1cc(N)c(Cl)cc1C(=O)NCC1CN(CC2CCN(C(=O)N3CCCC3)CC2)CCO1 (centres unmarked) [Example 90, 4-amino-5-chloro-2-ethoxy-N-[{4-[(1-(1-pyrrolidinecarbonyl)-4-piperidinyl)-methyl]-2-morpholinyl}methyl]benzamide 1.5 fumarate]
pIC50 (5-HT4 receptor; [1]): 8.16

SMILES: C=CCCCCC(=O)N1CCC(CN2CCOC(CNC(=O)c3cc(Cl)c(N)cc3OCC)C2)CC1 (racemic) [Example 162]
pIC50 (5-HT4 receptor; [1]): 8.10

SMILES: COC(=O)c1ccc(C(=O)N2CCC(CN3CCO[C@@H](CNC(=O)c4cc(Cl)c(N)cc4OC)C3)CC2)cc1 [Example 174]
pIC50 (5-HT4 receptor; [1]): 8.07

SMILES: COc1cc(N)c(Cl)cc1C(=O)NC[C@H]1CN(CC2CCN(C(=O)Oc3ccccc3)CC2)CCO1 [Example 106]
pIC50 (5-HT4 receptor): 8.21

SMILES: C=CC=CC(=O)N1CCC(CN2CCOC(CNC(=O)c3cc(Cl)c(N)cc3OCC)C2)CC1 (racemic) [Example 163]
pIC50 (5-HT4 receptor; [1]): 8.18

SMILES: Nc1c(Cl)cc(C(=O)NC[C@H]2CN(CC3CCN(C(=O)C4CCOC4)CC3)CCO2)c2c1CCO2 (some centres unmarked) [Example 232]
pIC50 (5-HT4 receptor; [1]): 8.13
Effect (Male Slc-ddy mice): ++

SMILES: COc1cc(N)c(Cl)cc1C(=O)NC[C@H]1CN(CC2CCN(C(=O)c3cccc(OC(C)=O)c3)CC2)CCO1 [Example 168]
pIC50 (5-HT4 receptor; [1]): 8.29

SMILES: COc1cc(N)c(Cl)cc1C(=O)NC[C@H]1CN(CC2CCN(C(=O)c3cccc(O)c3)CC2)CCO1 [Example 201]
pIC50 (5-HT4 receptor; [1]): 8.35

SMILES: COc1cc(N)c(Cl)cc1C(=O)NC[C@H]1CN(CC2CCN(C(=O)OCC(C)C)CC2)CCO1 [Example 102]
pIC50 (5-HT4 receptor; [1]): 8.17

SMILES: COc1cc(N)c(Cl)cc1C(=O)NC[C@H]1CN(CC2CCN(C(=O)CC3CCNCC3)CC2)CCO1 [Example 194]
pIC50 (5-HT4 receptor; [1]): 7.99

SMILES: CCOc1cc(N)c(Cl)cc1C(=O)NC[C@H]1CN(CC2CCN(C(=O)c3ccccc3OC(C)=O)CC2)CCO1 [Example 167]
pIC50 (5-HT4 receptor; [1]): 8.20

SMILES: COc1cc(N)c(Cl)cc1C(=O)NC[C@H]1CN(CC2CCN(C(=O)c3ccc(C)cc3)CC2)CCO1 [Example 120]
pIC50 (5-HT4 receptor; [1]): 8.58

SMILES: CS(=O)(=O)N1CCC(CN2CCOC(CNC(=O)c3cc(Cl)c(N)c4c3OCC4)C2)CC1 (centres unmarked) [Example 140]
pIC50 (5-HT4 receptor; [1]): 8.55

The next lines start with results.

pIC50 (5-HT4 receptor; [1]): 8.65
SMILES: CCOc1cc(N)c(Cl)cc1C(=O)NCC1CN(CC2CCN(C(=O)c3cccc(F)c3)CC2)CCO1 (centres unmarked) [Example 114]

pIC50 (5-HT4 receptor; [1]): 8.63
SMILES: CCOc1cc(N)c(Cl)cc1C(=O)NC[C@H]1CN(CC2CCN(C(=O)c3ccc(OC)cc3)CC2)CCO1 [Example 126]

pIC50 (5-HT4 receptor; [1]): 8.79
SMILES: COc1cc(N)c(Cl)cc1C(=O)NC[C@H]1CN(CC2CCN(C(=O)c3cccc4c3OCC4)CC2)CCO1 [Example 177]

pIC50 (5-HT4 receptor; [1]): 8.67
SMILES: COc1cc(N)c(Cl)cc1C(=O)NC[C@H]1CN(CC2CCN(C(=O)c3cccc(N(C)C)c3)CC2)CCO1 [Example 171]

pIC50 (5-HT4 receptor; [1]): 8.65
SMILES: COc1cc(N)c(Cl)cc1C(=O)NC[C@H]1CN(CC2CCN(C(=O)c3cccc(F)c3)CC2)CCO1 [Example 113]

pIC50 (5-HT4 receptor; [1]): 10.40
SMILES: COc1cc(N)c(Cl)cc1C(=O)NC[C@H]1CN(CC2CCN(C(=O)c3cccc(Br)c3)CC2)CCO1 [Example 117]

pIC50 (5-HT4 receptor; [1]): 8.68
SMILES: COc1cc(N)c(Cl)cc1C(=O)NC[C@H]1CN(CC2CCN(C(=O)c3ccc(C(C)(C)C)cc3)CC2)CCO1 [Example 123]

pIC50 (5-HT4 receptor; [1]): 9.06
SMILES: COc1cc(N)c(Cl)cc1C(=O)NC[C@H]1CN(CC2CCN(C(=O)c3ccc(N(C)C)cc3)CC2)CCO1 [Example 172]

pIC50 (5-HT4 receptor; [1]): 9.19
SMILES: COc1cc(N)c(Cl)cc1C(=O)NC[C@H]1CN(CC2CCN(C(=O)c3ccc(C#N)cc3)CC2)CCO1 [Example 230]
Effect (Male Slc-ddy mice): ++

pIC50 (5-HT4 receptor; [1]): 9.14
SMILES: COc1cc(N)c(Cl)cc1C(=O)NC[C@H]1CN(CC2CCN(C(=O)c3ccc(N)c(Cl)c3)CC2)CCO1 [Example 176]

pIC50 (5-HT4 receptor; [1]): 8.84
SMILES: COc1ccccc1NC(=O)N1CCC(CN2CCO[C@@H](CNC(=O)c3cc(Cl)c(N)cc3OC)C2)CC1 [Example 53]

pIC50 (5-HT4 receptor; [1]): 8.73
SMILES: COc1cc(N)c(Cl)cc1C(=O)NC[C@H]1CN(CC2CCN(C(=O)NCc3ccccc3C)CC2)CCO1 [Example 60]

pIC50 (5-HT4 receptor; [1]): 8.74
SMILES: COc1cc(N)c(Cl)cc1C(=O)NC[C@H]1CN(CC2CCN(C(=O)Nc3cc(C)cc(C)c3)CC2)CCO1 [Example 57]

pIC50 (5-HT4 receptor; [1]): 8.91
SMILES: COc1cc(N)c(Cl)cc1C(=O)NC[C@H]1CN(CC2CCN(C(=O)c3ccc(C)s3)CC2)CCO1 [Example 178]

pIC50 (5-HT4 receptor; [1]): 8.82
SMILES: Nc1c(Cl)cc(C(=O)NCC2CN(CC3CCN(C(=O)N4CCCC4)CC3)CCO2)c2c1CCO2 (centres unmarked) [Example 134]

pIC50 (5-HT4 receptor; [1]): 8.77
SMILES: COc1cc(N)c(Cl)cc1C(=O)NC[C@H]1CN(CC2CCN(C(=O)c3ccccc3C)CC2)CCO1 [Example 118]

Reference: patent publication US7906510B2, “Amide derivative and pharmaceutical composition containing the same” (Dainippon Sumito Pharma Co., Ltd., priority 2008, dated 2011)
